ChEMBL document CHEMBL1201862, “PubChem BioAssay data set” (2004)
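Values below derive from 48-hour exposures of cells grown in 96-well plates, with endpoints linearly interpolated between the two concentrations bracketing the appropriate inhibition level. GI50 is the concentration that inhibits growth by half.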 Active and inactive are the calls of the source. No stated cut-off is given here; in the data, active = GI50 up to about 1.1 µM and inactive = higher.

What was measured:
Assay in all cases: growth of human tumour cells (NCI), 48 h
KM12 = tested on: KM12
XF498 = tested on: XF498
SK-MEL-2 = tested on: SK-MEL-2
HT-29 = tested on: HT-29
EKVX = tested on: EKVX
CCRF-CEM = tested on: CCRF-CEM
HOP-92 = tested on: HOP-92
786-0 = tested on: 786-0
A549 = tested on: A549
UACC-257 = tested on: UACC-257
RXF 393 = tested on: RXF 393
CAKI-1 = tested on: CAKI-1
SN12C = tested on: SN12C
NCI/ADR-RES = tested on: NCI/ADR-RES
MCF7 = tested on: MCF7
MDA-N = tested on: MDA-N
PC-3 = tested on: PC-3
T47D = tested on: T47D
MDA-MB-231 = tested on: MDA-MB-231
MDA-MB-435 = tested on: MDA-MB-435

Measured: GI50

Cn1c(=O)c(/N=N/c2c(=O)n(C)c(=O)n3c2[nH]c2ccccc23)c2[nH]c3ccccc3n2c1=O
inactive: KM12 > 100 µM | XF498 > 100 µM | SK-MEL-2 > 100 µM | HT-29 > 100 µM | EKVX > 100 µM | CCRF-CEM 8.63 µM | HOP-92 94.2 µM | 786-0 41.9 µM | A549 92.7 µM | UACC-257 54.2 µM | RXF 393 > 100 µM | CAKI-1 > 100 µM

Cc1ccc(S(=O)(=O)NC(=O)NCCc2ccccc2)cc1
inactive: KM12 > 100 µM | XF498 > 100 µM | SK-MEL-2 > 100 µM | EKVX > 100 µM | CCRF-CEM > 100 µM | HOP-92 > 100 µM | 786-0 > 100 µM | A549 > 100 µM | UACC-257 25.9 µM | SN12C > 100 µM | RXF 393 77.6 µM | CAKI-1 > 100 µM

CCCCCCCCCCCCCCCC(=O)OCC1OC(n2cc(F)c(=O)[nH]c2=O)C(N)C(O)C1O (stereo not given)
inactive: KM12 18.6 µM | XF498 18.9 µM | HT-29 20.6 µM | EKVX 18.8 µM | CCRF-CEM 16 µM | HOP-92 20.1 µM | 786-0 19.1 µM | A549 19 µM | UACC-257 20.2 µM | SN12C 18.2 µM | CAKI-1 21 µM

O=C(NNC(=O)/C(=C/c1cccc([N+](=O)[O-])c1)NC(=O)c1ccccc1)Nc1ccc(Cl)cc1
inactive: KM12 11.4 µM | XF498 9.53 µM | SK-MEL-2 12.2 µM | HT-29 14.1 µM | EKVX 18.7 µM | CCRF-CEM 6.58 µM | HOP-92 21 µM | 786-0 14 µM | A549 14.3 µM | UACC-257 17.6 µM | SN12C 14.5 µM | RXF 393 11 µM | CAKI-1 19.9 µM

N#Cc1ccccc1/C=N/O
inactive: KM12 > 100 µM | XF498 > 100 µM | HT-29 > 75.3 µM | EKVX > 100 µM | CCRF-CEM > 50.8 µM | HOP-92 > 100 µM | 786-0 > 76.7 µM | A549 > 100 µM | UACC-257 > 100 µM | SN12C > 100 µM | RXF 393 > 100 µM | CAKI-1 > 100 µM

Cc1ccc(NC(=O)c2cc3cc(/N=N/c4ccccc4C(=O)O)ccc3oc2=O)cc1
inactive: KM12 44.5 µM | XF498 33 µM | HT-29 38.5 µM | EKVX 46.1 µM | CCRF-CEM 30.2 µM | 786-0 94.6 µM | A549 40.9 µM | UACC-257 20.3 µM | SN12C 54.6 µM | RXF 393 51.4 µM

COC(=O)c1c/c(=N\NC(=O)CC(=O)Nc2ccccc2Cl)c2ccccc2o1
inactive: KM12 > 100 µM | XF498 > 100 µM | SK-MEL-2 > 100 µM | HT-29 > 100 µM | EKVX > 100 µM | 786-0 > 100 µM | A549 > 100 µM | UACC-257 > 100 µM | SN12C > 100 µM | CAKI-1 > 100 µM

Cc1nc(N2N=C(c3ccc(Cl)cc3)CCC2=O)sc1[N+](=O)[O-]
inactive: KM12 > 100 µM | XF498 > 100 µM | SK-MEL-2 > 100 µM | HT-29 > 100 µM | EKVX 67.6 µM | CCRF-CEM > 100 µM | 786-0 > 100 µM | A549 > 100 µM | UACC-257 > 100 µM | SN12C > 100 µM | RXF 393 > 100 µM | CAKI-1 > 100 µM

COc1cc(-c2nccc3cc(OC)c(OC)cc23)ccc1O
inactive: KM12 48.3 µM | XF498 25.4 µM | SK-MEL-2 > 100 µM | HT-29 30.8 µM | EKVX 35.6 µM | CCRF-CEM 38.5 µM | HOP-92 23.9 µM | 786-0 78 µM | A549 > 100 µM | UACC-257 69.2 µM | SN12C 48.2 µM | CAKI-1 21.3 µM

C(=C\c1ccccc1)/C=N/c1nc2cc3sc(/N=C/C=C/c4ccccc4)nc3cc2s1
inactive: KM12 76.2 µM | SK-MEL-2 > 100 µM | HT-29 30.6 µM | EKVX 73.1 µM | CCRF-CEM 8.47 µM | NCI/ADR-RES > 100 µM | HOP-92 > 100 µM | MCF7 12.6 µM | 786-0 > 100 µM | MDA-N > 72.1 µM | PC-3 > 79.8 µM | T47D 47 µM | MDA-MB-231 > 100 µM | A549 12.1 µM | UACC-257 > 100 µM | SN12C 69.2 µM | RXF 393 > 100 µM | MDA-MB-435 > 100 µM | CAKI-1 70.6 µM

O=C(CSc1nnc(-c2ccc(/N=C\c3ccc(Cl)cc3)cc2)o1)Nc1ccc(Cl)cc1Cl
inactive: KM12 28.6 µM | XF498 17.7 µM | SK-MEL-2 25.2 µM | HT-29 25.8 µM | EKVX 34.1 µM | CCRF-CEM 29.3 µM | HOP-92 22.3 µM | 786-0 19.5 µM | A549 > 100 µM | UACC-257 25 µM | SN12C 24 µM | RXF 393 68.7 µM | CAKI-1 > 100 µM

CC(O)C(C(=O)O)N(CC1(O)OCC(O)C(O)C1O)N=O (stereo not given)
inactive: KM12 > 100 µM | XF498 > 100 µM | SK-MEL-2 > 100 µM | HT-29 > 100 µM | EKVX > 100 µM | CCRF-CEM > 100 µM | HOP-92 > 100 µM | 786-0 > 100 µM | A549 > 100 µM | UACC-257 > 100 µM | RXF 393 > 100 µM

C=C(C)C(=O)O[C@@H]1C[C@@]2(C)O[C@@H]2C[C@H](O)/C(C)=C/[C@H]2OC(=O)C(=C)[C@@H]21
inactive: KM12 > 100 µM | SK-MEL-2 49.1 µM | HT-29 61.5 µM | EKVX 62.2 µM | CCRF-CEM 17.3 µM | NCI/ADR-RES 60.7 µM | HOP-92 52.8 µM | MCF7 35.8 µM | 786-0 38.9 µM | MDA-N 50 µM | PC-3 > 100 µM | T47D 50.7 µM | MDA-MB-231 > 100 µM | A549 > 100 µM | UACC-257 > 100 µM | SN12C 36.6 µM | RXF 393 33.3 µM | MDA-MB-435 59.6 µM | CAKI-1 28.6 µM

COc1cc2c(c(OC)c1)C(=O)O[C@H](C)CCCC/C=C/C2
inactive: KM12 9.35 µM | SK-MEL-2 12.1 µM | HT-29 35 µM | EKVX 11.7 µM | CCRF-CEM 2.26 µM | NCI/ADR-RES 29.2 µM | HOP-92 9.77 µM | MCF7 11.6 µM | 786-0 10.9 µM | MDA-N 8.63 µM | PC-3 7.78 µM | T47D 9.16 µM | MDA-MB-231 10.9 µM | A549 30.6 µM | UACC-257 10.9 µM | SN12C 7.14 µM | RXF 393 9.95 µM | MDA-MB-435 4.73 µM | CAKI-1 10.4 µM

CCOC(=O)c1nc2ccc(C(F)(F)F)cc2nc1Oc1ccc(OC)cc1
inactive: KM12 > 100 µM | SK-MEL-2 > 100 µM | HT-29 > 100 µM | EKVX 55.2 µM | CCRF-CEM > 100 µM | NCI/ADR-RES > 100 µM | HOP-92 82.2 µM | MCF7 > 100 µM | 786-0 > 100 µM | MDA-N > 100 µM | PC-3 > 100 µM | T47D > 100 µM | MDA-MB-231 > 100 µM | A549 > 100 µM | UACC-257 > 100 µM | SN12C > 100 µM | RXF 393 > 100 µM | MDA-MB-435 > 100 µM | CAKI-1 9.42 µM

C/C(=N\Nc1ccccc1)c1sc(-c2nc(C)c(/C(C)=N/Nc3ccccc3)s2)nc1C
inactive: KM12 24.7 µM | XF498 45.6 µM | SK-MEL-2 > 100 µM | HT-29 9.06 µM | EKVX 24.7 µM | CCRF-CEM 28.3 µM | HOP-92 10.4 µM | 786-0 18.8 µM | A549 13.5 µM | UACC-257 35.1 µM | SN12C > 78.2 µM | RXF 393 22.8 µM | CAKI-1 > 58.2 µM

COc1cc(C2S/C(=C/c3ccccc3)C(=O)N2c2ccc([N+](=O)[O-])cc2)cc(OC)c1OC (stereo not given)
inactive: KM12 28.6 µM | SK-MEL-2 > 91.4 µM | HT-29 > 39.6 µM | EKVX 39.6 µM | CCRF-CEM 32.6 µM | NCI/ADR-RES > 80.4 µM | HOP-92 > 100 µM | MCF7 58.3 µM | 786-0 > 100 µM | MDA-N > 56.8 µM | PC-3 > 100 µM | T47D 40.9 µM | MDA-MB-231 > 100 µM | A549 > 96.4 µM | UACC-257 60.7 µM | SN12C > 90.6 µM | RXF 393 > 100 µM | MDA-MB-435 18 µM | CAKI-1 97.1 µM

NCC(Cc1ccccc1)P(=O)(O)O (stereo not given)
inactive: KM12 > 100 µM | SK-MEL-2 > 100 µM | HT-29 > 100 µM | EKVX > 100 µM | CCRF-CEM > 100 µM | NCI/ADR-RES > 100 µM | HOP-92 > 100 µM | MCF7 > 100 µM | 786-0 > 100 µM | MDA-N > 100 µM | PC-3 > 100 µM | T47D > 100 µM | MDA-MB-231 > 100 µM | A549 > 100 µM | UACC-257 > 100 µM | SN12C > 100 µM | RXF 393 > 100 µM | MDA-MB-435 > 100 µM | CAKI-1 > 100 µM
